One series addresses T1, 5-HT2C receptor (Homo sapiens, UniProt P28335).
T1 construct: host or cells: U2OS
Briefly: Human 5-HT2C functional assay (beta-arrestin2 recruitment, U2OS_HTR2C_β-Arrestin cells). It counts as cell-based. The settings on record: for EC50: beta-arrestin2 recruitment, U2OS_HTR2C_β-Arrestin cells, 1.5 h incubation, read-out: EC50 5-HT2C (potency in functional assay); for Emax: relative efficacy vs response to 10 μM 5-HT or maximal 5-HT effect (100%). As to the method:
The functional activity of compounds of formula I was assayed by incubation with U2OS_HTR2C_β-Arrestin cells (DiscoverX, 93-0289C3) to induce beta-arrestin2 recruitment to the 5-HT2C receptor. The agonist-induced recruitment and proximity of the receptor and beta-arrestin2 leads to complementation and formation of active β-galactosidase. The enzyme complementation results in enzyme activity, which is measured following the termination of the agonist incubation using DiscoveRx's detection reagent, which contains a chemiluminescent substrate which produces a high intensity signal. Cells were plated and a medium-change to a 1% serum containing medium was performed 24h later. The next day, test compounds were added and incubated for 1.5 h before addition of detection reagent.
The response produced was measured and compared with the response produced by 10 [mu]M 5-HT or the maximal effect induced by 5-HT (defined as 100%) to which it was expressed as a percentage response (relative efficacy). Dose response curves were constructed using Graphpad Prism (Graph Software Inc.) or using in house adapted software using a 4 parameter dose response model with variable slope (fit=(Bottom+(Top-Bottom)/(1+10^∧((Log EC50−x)*HillSlope))res=(y-fit)). Results are compiled in the table below.
Background: Arrestin recruitment assays detect the binding of arrestin to an activated receptor.

Series [1] can be described thus: Metabolic stability in human liver microsomes, unbound intrinsic clearance (Cl int/fu mic). It counts as in vitro ADME. The conditions noted are these: human, liver microsomes, pH 7.4, human liver microsomes 0.25 mg/mL, 0.5 μM compound, NADPH, read-out: Cl int, mic unb. (h) [l/h/kg] (unbound intrinsic clearance, human). The protocol: Samples of the tested compounds (0.5 μM) were preincubated together with human liver microsomes (0.25 mg of microsomal protein/mL) in 0.05 M potassium phosphate buffer of pH 7.4 in microtiter plates at 37° C. for 5 minutes. The reaction was started by adding NADPH (1.0 mM). After 0, 5, 10, 15, 20 and 30 minutes, an aliquot was removed, the reaction was cooled and stopped by adding twice the amount of quench solution consisting of acetonitrile/methanol 1:1, and containing 0.2 μM carbutamide as internal standard. The samples were frozen until analyzed. The remaining concentration of undegraded test substance was determined by liquid chromatography-tandem mass spectrometry (LC-MS/MS). The half-life (t1/2) was determined from the gradient of the ratio of the signal of (test substance/internal standard)/unit time plot, allowing the calculation of the half-life of the test substance, assuming first order kinetics, from the decrease in the concentration of the compound with time. The microsomal clearance ([…]) was calculated as follows: […]=((ln(2)/t 1⁄2)/Microsomal Protein Concentration (mg/ml))*1000, leading to the unit of uL/min/mg. The scaled clearance (mClin_scaled) was calculated as […]_scaled=m CLint*(Microsomal Yield (mg/kg BW))/1000000*60, leading to the units L/h/kg. The Microsomal Yield is defined by the specifics of the used microsomes. Calculations were modified from references: Di, The Society for Biomolecular Screening, 2003, 453-462; Obach, D M D, 1999 vol 27. N 11, 1350-1359. A suspension of 0.25 mg/ml microsomal protein spiked with 0.5 μM of test compound was pipetted on one side of a HTDialysis device (HTDialysis LLC, 37 Ledgewood Drive, Gales Fery CT 06335) separated by a membrane with a MWcut off 12-14 K. 50 mM K-Phosphate buffer (pH 7.4) was added on the other side of the well. After incubation at 37° C. for 4 h while shaking at 150 rpm, aliquots of both sides were taken, quenched with MeOH/ACN 1:1 and 0.2 μM of internal standard and frozen until analysis by LCMSMS Cl int unbound=Cl int/fu mic

Counter-ions that a name gives are not always drawn.

T1 sequence (P28335 33-458): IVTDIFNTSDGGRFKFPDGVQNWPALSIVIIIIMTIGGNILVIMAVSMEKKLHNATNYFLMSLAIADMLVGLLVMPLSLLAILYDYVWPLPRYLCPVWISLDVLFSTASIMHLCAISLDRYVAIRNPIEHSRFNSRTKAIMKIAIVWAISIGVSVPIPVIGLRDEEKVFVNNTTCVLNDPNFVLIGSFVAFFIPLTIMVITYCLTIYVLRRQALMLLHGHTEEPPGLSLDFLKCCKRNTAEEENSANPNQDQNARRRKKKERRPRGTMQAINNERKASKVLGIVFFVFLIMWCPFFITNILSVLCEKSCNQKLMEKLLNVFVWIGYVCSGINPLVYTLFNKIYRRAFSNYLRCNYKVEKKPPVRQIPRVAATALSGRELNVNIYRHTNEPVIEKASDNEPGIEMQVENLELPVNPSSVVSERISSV
T1 sequence (P32121 whole entry partner): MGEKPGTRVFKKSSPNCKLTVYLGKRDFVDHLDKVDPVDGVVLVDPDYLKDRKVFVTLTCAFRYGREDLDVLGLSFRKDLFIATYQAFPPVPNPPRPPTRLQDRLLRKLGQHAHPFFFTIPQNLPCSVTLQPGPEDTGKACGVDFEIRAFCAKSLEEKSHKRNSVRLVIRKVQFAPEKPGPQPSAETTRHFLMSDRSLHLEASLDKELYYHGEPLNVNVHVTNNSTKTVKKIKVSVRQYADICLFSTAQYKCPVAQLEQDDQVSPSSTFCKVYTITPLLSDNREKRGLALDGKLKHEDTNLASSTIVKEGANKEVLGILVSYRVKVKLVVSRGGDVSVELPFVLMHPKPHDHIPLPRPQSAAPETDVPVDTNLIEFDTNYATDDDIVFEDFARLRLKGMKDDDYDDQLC

For `COc1nc(OC[C@H]2CCC(F)(F)C2)c(F)cc1CNC(=O)[C@@H]1CCCN1C` [Example 17, (2S)—N-[[6-[[(1S)-3,3-Difluorocyclopentyl]methoxy]-5-fluoro-2-methoxy-3-pyridyl]methyl]-1-methyl-pyrrolidine-2-carboxamide; Fumaric Acid], on 5-HT2C receptor, the EC50 – broadly, the midpoint of the concentration-response curve – lay in the range of 20 to 200 nM and the Emax (in general, the size of the effect at its maximum, as opposed to the concentration needed) fell in the range of 50 to 70%. In addition, the CLint scaled at 0.5 μM in series [1] is 5 to 50 L/h/kg.

As for `COc1nc(OCC(F)(F)C(F)(F)F)c(F)cc1CNC(=O)[C@@H]1CCCN1` [Example 18, (2S)—N-[[5-Fluoro-2-methoxy-6-(2,2,3,3,3-pentafluoropropoxy)-3-pyridyl]methyl]-pyrrolidine-2-carboxamide; Succinic Acid], on 5-HT2C receptor, the EC50 is less than 20 nM and the Emax was greater than 70%. Besides, the CLint scaled at 0.5 μM in series [1] was less than 5 L/h/kg.

On to `COc1nc(O[C@H]2CC[C@@H](C(F)(F)F)CC2)c(F)cc1CNC(=O)[C@@H]1CCCN1C` [Example 19, (2S)—N-[[5-Fluoro-2-methoxy-6-[cis-4-(trifluoromethyl)cyclohexoxy]-3-pyridyl]methyl]-1-methyl-pyrrolidine-2-carboxamide; Fumaric Acid], for which, on 5-HT2C receptor, the EC50 was less than 20 nM and the Emax was greater than 70%. The CLint scaled at 0.5 μM in series [1] was 5 to 50 L/h/kg.

On to `COc1nc(O[C@H]2CC[C@@H](C(F)(F)F)CC2)c(F)cc1CNC(=O)[C@@H]1CCCN1` [Example 20, (2S)—N-[[5-Fluoro-2-methoxy-6-[cis-4-(trifluoromethyl)cyclohexoxy]-3-pyridyl]methyl]pyrrolidine-2-carboxamide; Fumaric Acid], for which, on 5-HT2C receptor, the EC50 is less than 20 nM and the maximal effect (Emax) is greater than 70%. Also, the CLint scaled at 0.5 μM in series [1] was 5 to 50 L/h/kg.

With `COc1nc(OC2CCC(F)(F)C2)c(F)cc1CNC(=O)[C@@H]1CCCN1C` (stereo partly drawn) [Example 23, (2S)—N-[[6-(3,3-Difluorocyclopentoxy)-5-fluoro-2-methoxy-3-pyridyl]methyl]-1-methyl-pyrrolidine-2-carboxamide; Fumaric Acid], on 5-HT2C receptor, the concentration giving a half-maximal response (EC50) was less than 20 nM and the Emax is greater than 70%. The CLint scaled at 0.5 μM in series [1] was less than 5 L/h/kg.

With `COc1nc(OC2CCC(F)(F)C2)c(F)cc1CNC(=O)[C@@H]1CCCN1` (stereo partly drawn) [Example 24, (2S)—N-[[6-(3,3-Difluorocyclopentoxy)-5-fluoro-2-methoxy-3-pyridyl]methyl]-pyrrolidine-2-carboxamide; Fumaric Acid], at 5-HT2C receptor, the EC50 was less than 20 nM and the Emax is greater than 70%. Moreover, the CLint scaled at 0.5 μM in series [1] was less than 5 L/h/kg.

Turning to `COc1nc(OC[C@@H]2CCC(F)(F)C2)c(F)cc1CNC(=O)[C@H]1CCCN1C` [Example 25, (2R)—N-[[6-[[(1R)-3,3-Difluorocyclopentyl]methoxy]-5-fluoro-2-methoxy-3-pyridyl]methyl]-1-methyl-pyrrolidine-2-carboxamide; Fumaric Acid], at 5-HT2C receptor, the EC50 was 20 to 200 nM and the Emax lay within 50 to 70%. The CLint scaled at 0.5 μM in series [1] is less than 5 L/h/kg.

As for `COc1nc(O[C@H]2CCC(F)(F)C2)c(F)cc1CNC(=O)[C@@H]1CCCN1C` [Example 26, (2S)—N-[[6-[(1S)-3,3-Difluorocyclopentoxy]-5-fluoro-2-methoxy-3-pyridyl]methyl]-1-methyl-pyrrolidine-2-carboxamide Hydrochloride], at 5-HT2C receptor, the EC50 was less than 20 nM and the Emax was greater than 70%. In addition, the CLint scaled at 0.5 μM in series [1] is less than 5 L/h/kg.

For `COc1nc(O[C@@H]2CCC(F)(F)C2)c(F)cc1CNC(=O)[C@@H]1CCCN1C` [Example 27, (2S)—N-[[6-[(1R)-3,3-Difluorocyclopentoxy]-5-fluoro-2-methoxy-3-pyridyl]methyl]-1-methyl-pyrrolidine-2-carboxamide Hydrochloride], at 5-HT2C receptor, the EC50 is less than 20 nM and the Emax was greater than 70%. Also, in series [1], the CLint scaled at 0.5 μM is less than 5 L/h/kg.

For the origin of these results see patent US20190062305A1, “PYRIDYL OR PYRAZINYL COMPOUNDS CARRYING A METHYL-BOUND ALPHA-AMINO ACID AMIDE GROUP” (ABBVIE DEUTSCHLAND GMBH & CO. KG, priority 2015, published 2019).
